“And” between values parts separate entries of the source, which are not always exact repeats. Equal entries are not always repeated. Toxic doses and inconclusive results are not listed. Rule for the calls: active = survival T/C of 150% or more; inactive = T/C below 125% in these data.
Test system: P388 leukemia ip, CD2F1 mice, survival T/C
Experiment: NCI In Vivo Anticancer Drug Screen. Data for tumor model P388 Leukemia (intraperitoneal) in CD2F1 (CDF1) mice
Details: endpoint: median survival time, higher = longer survival
Outline: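 Mice carrying the transplanted tumor received test compound or vehicle. Survival was recorded in each group, and the value is the treated-group measurement divided by that of the vehicle-treated control group.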

[1] = dose: 12.5 mg/kg/injection, schedule: Q01DX009 (ip), vehicle: saline

Measured: T/C

O=C(O)CSc1nnc(Cc2cccc3ccccc23)n1-c1ccccc1
inactive: dose: 50.0 mg/kg/injection, schedule: Q01DX005 (ip), vehicle: Klucel (hydroxypropylcellulose) (HPC) 100 % of control | dose: 100.0 mg/kg/injection, schedule: Q01DX005 (ip), vehicle: Klucel (hydroxypropylcellulose) (HPC) 102 % of control | dose: 200.0 mg/kg/injection, schedule: Q01DX005 (ip), vehicle: Klucel (hydroxypropylcellulose) (HPC) 100 % of control

Clc1ccccc1-c1nnc(-c2cccc(-c3nnc(-c4ccccc4Cl)s3)c2)s1
inactive: dose: 50.0 mg/kg/injection, schedule: Q01DX005 (ip), vehicle: saline with Tween-80 91 % of control | dose: 100.0 mg/kg/injection, schedule: Q01DX005 (ip), vehicle: saline with Tween-80 89 % of control | dose: 200.0 mg/kg/injection, schedule: Q01DX005 (ip), vehicle: saline with Tween-80 90 % of control

OC1(c2ccccc2)CN(Cc2ccccc2)CC(c2ccccc2)O1 (stereo unspecified)
inactive: dose: 100.0 mg/kg/injection, schedule: Q01DX009 (ip), vehicle: saline with Tween-80 98 % of control | dose: 200.0 mg/kg/injection, schedule: Q01DX009 (ip), vehicle: saline with Tween-80 100 % of control | dose: 400.0 mg/kg/injection, schedule: Q01DX009 (ip), vehicle: saline with Tween-80 106 % of control

CS(=O)(=O)[O][Sn]([CH3])([CH3])[O]S(C)(=O)=O
inactive: dose: 6.25 mg/kg/injection, schedule: Q04DX003 (ip), vehicle: saline 104 % of control | dose: 12.5 mg/kg/injection, schedule: Q04DX003 (ip), vehicle: saline 109 % of control | dose: 25.0 mg/kg/injection, schedule: Q04DX003 (ip), vehicle: saline 110 % of control

O=C(O)CCCNSc1ccccc1[N+](=O)[O-]
inactive: [1] 100 % of control and 117 % of control | dose: 25.0 mg/kg/injection, schedule: Q01DX009 (ip), vehicle: saline 108 % of control and 94 % of control | dose: 50.0 mg/kg/injection, schedule: Q01DX009 (ip), vehicle: saline 99 % of control and 110 % of control | dose: 100.0 mg/kg/injection, schedule: Q01DX009 (ip), vehicle: saline 100 % of control and 108 % of control

N#CC(C#N)=C(C#N)c1ccccc1
inactive: dose: 12.5 mg/kg/injection, schedule: Q01DX009 (ip), vehicle: saline with Tween-80 90 % of control | dose: 25.0 mg/kg/injection, schedule: Q01DX009 (ip), vehicle: saline with Tween-80 113 % of control

CC(CCO)CCCO (stereo unspecified)
inactive: dose: 60.0 mg/kg/injection, schedule: Q01DX005 (ip), vehicle: saline with Tween-80 97 % of control | dose: 120.0 mg/kg/injection, schedule: Q01DX005 (ip), vehicle: saline with Tween-80 95 % of control | dose: 240.0 mg/kg/injection, schedule: Q01DX005 (ip), vehicle: saline with Tween-80 101 % of control

Cn1cc(CCc2cc[n+](CCC[n+]3ccc(CCc4cn(C)c5ccccc45)cc3)cc2)c2ccccc21
inactive: dose: 6.25 mg/kg/injection, schedule: Q01DX009 (ip), vehicle: Klucel (hydroxypropylcellulose) (HPC) 104 % of control | dose: 12.5 mg/kg/injection, schedule: Q01DX009 (ip), vehicle: Klucel (hydroxypropylcellulose) (HPC) 106 % of control

O=c1c2ccccc2c(-c2ccc(N(CCCl)CCCl)cc2)cn1CCCl
inactive: dose: 25.0 mg/kg/injection, schedule: Q04DX003 (ip), vehicle: Klucel (hydroxypropylcellulose) (HPC) 100 % of control | dose: 50.0 mg/kg/injection, schedule: Q04DX003 (ip), vehicle: Klucel (hydroxypropylcellulose) (HPC) 114 % of control | dose: 100.0 mg/kg/injection, schedule: Q04DX003 (ip), vehicle: Klucel (hydroxypropylcellulose) (HPC) 107 % of control | dose: 200.0 mg/kg/injection, schedule: Q04DX003 (ip), vehicle: Klucel (hydroxypropylcellulose) (HPC) 115 % of control | dose: 400.0 mg/kg/injection, schedule: Q04DX003 (ip), vehicle: Klucel (hydroxypropylcellulose) (HPC) 100 % of control

COC1OC(CNC(=O)N(CCCl)N=O)C(O)C(O)C1O (stereo unspecified)
inactive: dose: 40.0 mg/kg/injection, schedule: Q04DX002 (ip), vehicle: saline 86 % of control
active: dose: 1.56 mg/kg/injection, schedule: Q01DX009 (ip), vehicle: saline 182 % of control | dose: 3.12 mg/kg/injection, schedule: Q01DX009 (ip), vehicle: saline 204 % of control | dose: 3.12 mg/kg/injection, schedule: Q04DX002 (ip), vehicle: saline 157 % of control | dose: 6.25 mg/kg/injection, schedule: Q01DX009 (ip), vehicle: saline 248 % of control | dose: 6.25 mg/kg/injection, schedule: Q04DX002 (ip), vehicle: saline 212 % of control | dose: 10.0 mg/kg/injection, schedule: Q04DX002 (ip), vehicle: saline 278 % of control | [1] 263 % of control | dose: 12.5 mg/kg/injection, schedule: Q04DX002 (ip), vehicle: saline 277 % of control | dose: 20.0 mg/kg/injection, schedule: Q04DX002 (ip), vehicle: saline 288 % of control | dose: 25.0 mg/kg/injection, schedule: Q04DX002 (ip), vehicle: saline 222 % of control

CC1C(=O)C(Cl)(Cl)C1(C)C (stereo unspecified)
inactive: dose: 100.0 mg/kg/injection, schedule: Q01DX001 (ip), vehicle: saline with Tween-80 106 % of control | dose: 200.0 mg/kg/injection, schedule: Q01DX001 (ip), vehicle: saline with Tween-80 110 % of control
